# In patent publication US20240269304A1, “BCL-XL INHIBITOR ANTIBODY-DRUG CONJUGATES AND METHODS OF USE THEREOF” (Novartis AG, priority 2020, published 2024):
# System: EBC-1 xenografts
# Experiment: In vivo testing of EpCAM ADCs with paclitaxel, EBC-1 xenografts (Example 17)
# Design: species or system female nude mice
# Settings: Paclitaxel Alone
# Method: EBC-1 cells were cultured at 37° C. (atmosphere of 5% CO2) in DMEM (Gibco 11965-084) supplemented with 10% FBS (HI-FBS #134K19, Tet-free). Treatment with 0.25% Trypsin (Gibco 25200-056) was used for sub-culturing. To establish EBC-1 xenografts, cells were harvested and re-suspended in a 1:1 v/v mixture of phosphate buffered saline and Matrigel. A total of 5×10^6 cells in a volume of 150 μL were injected subcutaneously in the flanks of female nude mice (Charles River, USA). Tumor growth was monitored regularly post cell inoculation and animals were randomized into treatment groups (n=8) with a mean tumor volume of about 210 mm^3. EpCAM-DANAPA-L11C-P25 ADC, 3207-DANAPA-L11C-P25 isotype control ADC, and EpCAM-DANAPA CysMab control antibody were all dosed in combination with paclitaxel (LC Laboratories, Woburn, MA, Cat #: P-9600) as indicated in FIG. 13. The ADCs and CysMab antibody were administered intravenously (i.v.) once at the start of treatment at 30 mg/kg. Paclitaxel was administered i.v. once at 12.5 mg/kg, 24 h after the ADC or CysMab dose. All reagents were dosed at 10 mL/kg based on the individual mouse body weight. The ADCs and CysMab were formulated at 3 mg/mL in PBS on the day of treatment. Paclitaxel was reconstituted in 50% Ethanol+50% Cremophor EL (Kolliphor EL) at a concentration of 6 mg/mL, and then further diluted to 1.25 mg/mL with sterile saline prior to administration on the day of treatment.
# Tumor volume data were analyzed for statistical difference relative to the EpCAM-DANAPA-L 11C-P25 ADC+ paclitaxel combination group. Unpaired two-tailed T-tests were used to make comparisons between groups.
# As a measure of efficacy, %T/C values were calculated according to the formula: […]
# Tumor regression was calculated according to the formula: […]
# Δtumor volumes represent mean tumor volumes on the measurement day minus the mean tumor volume at the start of treatment. The Δtumor volume control value specified above refers to mean tumor volume changes in the vehicle group.
compound,measurement,setting,value
"CC(=O)O[C@H]1C(=O)[C@@]2(C)[C@H]([C@H](OC(=O)c3ccccc3)[C@]3(O)C[C@H](OC(=O)[C@H](O)[C@@H](NC(=O)c4ccccc4)c4ccccc4)C(C)=C1C3(C)C)[C@]1(OC(C)=O)CO[C@@H]1C[C@@H]2O [Paclitaxel, paclitaxel]",% T/C (Day of Evaluation),Day 10,34%
same,ΔTumor volume (mm^3 ± SEM) (Day of Evaluation),Day 10,510.8 ± 158.5 mm^3
same,Significance vs EpCAM-DANAPA-L11C-P25 ADC on Day 9 (Day of Evaluation),"Day 10, unpaired two-tailed T-test vs EpCAM-DANAPA-L11C-P25 ADC + paclitaxel group",P = 0.0014
same,Complete Responders (Day of Evaluation),"Day 32, tumors regressed to 0 mm^3",0/8
